What was measured:
[1] = tested on: MDA-MB-231Br3 cells; experiment: Cell survival assay (trypan blue uptake) in glucose-free medium; assay type: cell-based
Method: By way of non-limiting example, to test the role of BCAAs in the survival of brain metastatic breast cancer cells, changes in the concentrations of BCAAs over time can be measured in MDA-MB-231 and MDA-MB-231Br3 cells when cultured in a glucose-free medium. […] To measure the ability of these two types of cells to oxidize BCAAs, ^14C-Leucine can be added to the culture media and the resulting ^14CO2 measured after 8 hours of incubation. […] To investigate the mechanism by which brain metastatic cells gain such higher activity of BCAA oxidation, the levels of the rate limiting enzymes of BCAA oxidation, branched chain ketoacids dehydrogenase E1 subunit (BCKDH-E1), the inactivated form of BCKDH-E1, pSer293-BCDKH-E1 (phosphorylated at serine 293 of the E1 subunit), the BCKDH inactivating kinase, and the branched chain ketoacids dehydrogenase kinase (BDK) can be determined in both brain metastatic cells and parental cells. […] Also, to test the pro-survival role of BCAAs in MDA-MB-231Br3 cells, BCAAs can be removed from the glucose-free medium containing glutamine. […] For these tests, trypanblue uptake can used to identify dead cells, and triplicates of samples can be used in each group.
Cells were seeded in 6-well plates in full MEM medium containing 5% dialyzed FBS and supplemented with 100 IU/ml penicillin and 100 μg/ml streptomycin (Invitrogen, CA, USA) and 292 ug/ml L-Glutamine (Invitrogen, CA, USA). Medium were replaced with modified MEM after 12 hours. Modified MEM contains basic formula of 5% dialyzed FBS and 100 IU/ml penicillin and 100 μg/ml streptomycin, other supplements like glutamine, glucose, etc. were added in the basic formula according to different needs of experimental groups. Both cell culture medium and trysinized cells were collected after 48 hours and stained with trypan blue. Viability counting was counted by Countess® Automated Cell Counter (Invitrogen, CA, USA).

[2] = tested on: MDA-MB-231Br3 cells; experiment: Resistance to chemotherapeutic reagents, brain metastatic vs parental cells (FIG. 1A); assay type: cell-based; settings: MDA-MB-231Br3 vs parental MDA-MB-231, triplicates

In the case of O=C(O[C@@H]1Cc2c(O)cc(O)cc2O[C@@H]1c1cc(O)c(O)c(O)c1)c1cc(O)c(O)c(O)c1 [EGCG, epigallocatechin gallate], the “cell death upon inhibition of GLUD” value ([1]; MDA-MB-231Br3 cells cultured in glucose-free medium, trend reverted upon addition of α-KG, FIG. 2D) is reported as “dose dependent cell death”, the “effect of incremental removal of BCAAs on sensitivity to GLUD inhibition” value ([1]; MDA-MB-231Br3 cells, glucose-free medium, 24 hour treatment, FIG. 3G) is reported as “significantly sensitizes” and the “sensitivity to GLUD inhibition, brain metastatic cells vs parental MDA-MB-231 cells” value ([1]; in the absence of glucose, FIG. 2D) is reported as “more sensitive”.

For CC(=O)O[C@H]1C(=O)[C@@]2(C)[C@H]([C@H](OC(=O)c3ccccc3)[C@]3(O)C[C@H](OC(=O)[C@H](O)[C@@H](NC(=O)c4ccccc4)c4ccccc4)C(C)=C1C3(C)C)[C@]1(OC(C)=O)CO[C@@H]1C[C@@H]2O [Taxol], the “resistance of MDA-MB-231Br3 cells to chemotherapeutic reagent relative to parental cells” value [2] was “more resistance”.

In the case of COc1cccc2c1C(=O)c1c(O)c3c(c(O)c1C2=O)C[C@@](O)(C(=O)CO)C[C@@H]3O[C@H]1C[C@H](N)[C@H](O)[C@H](C)O1 [adriamycin], the “resistance of MDA-MB-231Br3 cells to chemotherapeutic reagent relative to parental cells” value [2] is reported as “more resistance”.

Source: patent publication US9522139B2, “Fructose 1, 6-biphosphatases as new targets for diagnosing and treating breast cancer brain metastasis” (The University of Houston System, priority 2011, dated 2016)
